Assay results published in PMC5397059, “Design, synthesis and structure-activity relationship study of wollamide B; a new potential anti TB agent” (PLoS ONE, 2017).
Read-outs that look alike come from different tables or passages of the source.

Conditions: amide bond, 18-membered ring, HATU/HOBt/DIEA

## CC(C)C[C@@H]1NC(=O)[C@H](Cc2cn(C(=O)OC(C)(C)C)c3ccccc23)NC(=O)[C@@H](CCCNC(=O)OC(C)(C)C)NC(=O)[C@H](CC(=O)NC(c2ccccc2)(c2ccccc2)c2ccccc2)NC(=O)[C@H](C)NC(=O)[C@@H](CC(C)C)NC1=O [cyclo(Trp(Boc)-D-Orn(Boc)-Asn(Trt)-Ala-D-Leu-Leu)]
From H-dLeu-Ala-Asn(Trt)-dOrn(Boc)-Trp(Boc)-Leu-OH
  ring closure, isolated yield: 56%

## CC[C@H](C)[C@@H]1NC(=O)[C@@H](CC(C)C)NC(=O)[C@H](CC(C)C)NC(=O)[C@H](Cc2cn(C(=O)OC(C)(C)C)c3ccccc23)NC(=O)[C@@H](CCCNC(=N)NS(=O)(=O)c2c(C)c(C)c3c(c2C)CC(C)(C)O3)NC(=O)[C@H](CC(=O)NC(c2ccccc2)(c2ccccc2)c2ccccc2)NC1=O [cyclo (D-Leu-Ile-Asn(Trt)-D-Arg (Pbf)-Trp(Boc)-Leu)]
From H-dLeu-Ile-Asn(Trt)-dArg(Pbf)-Trp(Boc)-Leu-OH
  ring closure, isolated yield: 70%

## CC(C)C[C@@H]1NC(=O)[C@H](Cc2cn(C(=O)OC(C)(C)C)c3ccccc23)NC(=O)[C@@H](CCCNC(=O)OC(C)(C)C)NC(=O)[C@H](CC(=O)NC(c2ccccc2)(c2ccccc2)c2ccccc2)NC(=O)[C@H](C(C)C)NC(=O)[C@@H](CC(C)C)NC1=O [cyclo (Trp (Boc)-D-Orn(Boc)-Asn(Trt)-Val-D-Leu-Leu)]
From H-dLeu-Val-Asn(Trt)-dOrn(Boc)-Trp(Boc)-Leu-OH
  ring closure, isolated yield: 68%

## cyclo(D-Phe(4-Cl)-D-Orn(Boc)-Asn(Trt)-Val-D-Leu-Leu)
  ring closure, isolated yield: 43%

## CC[C@H](C)[C@@H]1NC(=O)[C@@H](CC(C)C)NC(=O)[C@H](CC(C)C)NC(=O)[C@H](Cc2cn(C(=O)OC(C)(C)C)c3ccccc23)NC(=O)[C@@H](CCCNC(=O)OC(C)(C)C)NC(=O)[C@H](CC(=O)NC(c2ccccc2)(c2ccccc2)c2ccccc2)NC1=O [cyclo (D-Leu-Ile-Asn(Trt)-D-Orn(Boc)-Trp(Boc)-Leu)]
From H-dLeu-Ile-Asn(Trt)-dOrn(Boc)-Trp(Boc)-Leu-OH
  ring closure, isolated yield: 52%

## CC(C)C[C@@H]1NC(=O)[C@H](Cc2cn(C(=O)OC(C)(C)C)c3ccccc23)NC(=O)[C@@H](CCCNC(=O)OC(C)(C)C)NC(=O)[C@H](C)NC(=O)[C@H](C(C)C)NC(=O)[C@@H](CC(C)C)NC1=O [cyclo(Trp(Boc)-D-Orn(Boc)-Ala-Val-D-Leu-Leu)]
From H-dLeu-Val-Ala-dOrn(Boc)-Trp(Boc)-Leu-OH
  ring closure, isolated yield: 56%

## COc1ccc(C[C@@H]2NC(=O)[C@@H](CCCNC(=O)OC(C)(C)C)NC(=O)[C@H](CC(=O)NC(c3ccccc3)(c3ccccc3)c3ccccc3)NC(=O)[C@H](C(C)C)NC(=O)[C@@H](CC(C)C)NC(=O)[C@H](CC(C)C)NC2=O)cc1 [cyclo(D-Leu-Val-Asn(Trt)-D-Orn(Boc)-Phe(4-OMe)-Leu)]
From H-dLeu-Val-Asn(Trt)-dOrn(Boc)-Phe(4-OMe)-Leu-OH
  ring closure, isolated yield: 41%

## CC[C@H](C)[C@@H]1NC(=O)[C@H](CC(C)C)NC(=O)[C@H](Cc2cn(C(=O)OC(C)(C)C)c3ccccc23)NC(=O)[C@@H](CCCNC(=O)OC(C)(C)C)NC(=O)[C@H](CC(=O)NC(c2ccccc2)(c2ccccc2)c2ccccc2)NC(=O)[C@H](C(C)C)NC1=O [cyclo(Asn(Trt)-D-Orn(Boc)-Trp(Boc)-Leu-Ile-Val)]
From H-Asn(Trt)-dOrn(Boc)-Trp(Boc)-Leu-Ile-Val-OH
  ring closure, isolated yield: 47%

## CC(C)C[C@@H]1NC(=O)[C@H](Cc2cn(C(=O)OC(C)(C)C)c3ccccc23)NC(=O)[C@@H](CCCNC(=O)OC(C)(C)C)NC(=O)[C@H](CC(=O)NC(c2ccccc2)(c2ccccc2)c2ccccc2)N(C)C(=O)[C@H](C(C)C)NC(=O)[C@@H](CC(C)C)N(C)C1=O [cyclo(Trp(Boc)-Leu-N-Me-D-Leu-Val-N-Me-Asn(Trt)-D-Orn(Boc))]
From H-Trp(Boc)-Leu-dMeLeu-Val-MeAsn(Trt)-dOrn(Boc)-OH
  ring closure, isolated yield: 60%

## CC(C)C[C@H]1NC(=O)[C@H](CC(C)C)N(C)C(=O)[C@H](Cc2cn(C(=O)OC(C)(C)C)c3ccccc23)NC(=O)[C@@H](CCCNC(=O)OC(C)(C)C)NC(=O)[C@H](CC(=O)NC(c2ccccc2)(c2ccccc2)c2ccccc2)N(C)C(=O)[C@H](C(C)C)NC1=O [cyclo(Val-N-Me-Asn(Trt)-D-Orn(Boc)-Trp(Boc)-N-Me-Leu-D-Leu)]
From H-Val-MeAsn(Trt)-dOrn(Boc)-Trp(Boc)-MeLeu-dLeu-OH
  ring closure, isolated yield: 80%

## CC(C)C[C@@H]1NC(=O)[C@H](Cc2cn(C(=O)OC(C)(C)C)c3ccccc23)NC(=O)[C@@H](CCCNC(=O)OC(C)(C)C)NC(=O)[C@H](CC(=O)NC(c2ccccc2)(c2ccccc2)c2ccccc2)NC(=O)[C@H](C(C)C)NC(=O)[C@@H](Cc2ccc(Cl)cc2)NC1=O [cyclo(D-Phe(4-Cl)-Val-Asn(Trt)-D-Orn(Boc)-Trp(Boc)-Leu)]
From H-dPhe(4-Cl)-Val-Asn(Trt)-dOrn(Boc)-Trp(Boc)-Leu-OH
  ring closure, isolated yield: 53%

## CC[C@H](C)[C@@H]1NC(=O)[C@H]([C@@H](C)CC)NC(=O)[C@@H](CC(C)C)NC(=O)[C@H](CC(C)C)NC(=O)[C@H](Cc2cn(C(=O)OC(C)(C)C)c3ccccc23)NC(=O)[C@@H](CCCNC(=O)OC(C)(C)C)NC1=O [cyclo(D-Leu-Ile-Ile-D-Orn(Boc)-Trp(Boc)-Leu)]
From H-dLeu-Ile-Ile-dOrn(Boc)-Trp(Boc)-Leu-OH
  ring closure, isolated yield: 54%

## CC(C)C[C@@H]1NC(=O)[C@@H](CC(C)C)NC(=O)[C@H](C(C)C)NC(=O)[C@H](CC(=O)NC(c2ccccc2)(c2ccccc2)c2ccccc2)NC(=O)[C@@H](CCCNC(=O)OC(C)(C)C)NC(=O)[C@H](Cc2cn(C(=O)OC(C)(C)C)c3ccccc23)NC1=O [cyclo(Trp (Boc)-D-Orn (Boc)-Asn(Trt)-Val-D-Leu-Leu)]
From H-Trp(Boc)-dOrn(Boc)-Asn(Trt)-Val-dLeu-Leu-OH, DMF, 1.0 mM
  ring closure, isolated yield: 50%

## CC(C)C[C@H]1NC(=O)[C@@H](Cc2ccc(Cl)cc2)NC(=O)[C@H](Cc2cn(C(=O)OC(C)(C)C)c3ccccc23)NC(=O)[C@@H](CCCNC(=O)OC(C)(C)C)NC(=O)[C@H](CC(=O)NC(c2ccccc2)(c2ccccc2)c2ccccc2)NC(=O)[C@H](C(C)C)NC1=O [cyclo(Asn(Trt)-D-Orn(Boc)-Trp(Boc)-D-Phe(4-Cl)-D-Leu-Val)]
From H-Asn(Trt)-dOrn(Boc)-Trp(Boc)-dPhe(4-Cl)-dLeu-Val-OH
  ring closure, isolated yield: 54%

## CC(C)C[C@@H]1NC(=O)[C@H](Cc2cn(C(=O)OC(C)(C)C)c3ccccc23)NC(=O)[C@@H](CCCNC(=O)OC(C)(C)C)NC(=O)[C@H](CC(=O)NC(c2ccccc2)(c2ccccc2)c2ccccc2)NC(=O)[C@H](C(C)C)N(C)C(=O)[C@@H](CC(C)C)NC1=O [cyclo(D-Leu-N-Me-Val-Asn(Trt)-D-Orn(Boc)-Trp(Boc)-Leu)]
From H-dLeu-MeVal-Asn(Trt)-dOrn(Boc)-Trp(Boc)-Leu-OH
  ring closure, isolated yield: 60%

## CC(C)C[C@H]1NC(=O)[C@H](CC(C)C)N(C)C(=O)[C@H](Cc2cn(C(=O)OC(C)(C)C)c3ccccc23)NC(=O)[C@@H](CCCNC(=O)OC(C)(C)C)NC(=O)[C@H](CC(=O)NC(c2ccccc2)(c2ccccc2)c2ccccc2)NC(=O)[C@H](C(C)C)N(C)C1=O [cyclo (Trp(Boc)-N-Me-Leu-D-Leu-N-Me-Val-Asn(Trt)-D-Orn(Boc))]
From H-Trp(Boc)-MeLeu-dLeu-MeVal-Asn(Trt)-dOrn(Boc)-OH
  ring closure, isolated yield: 73%

## CC[C@H](C)[C@@H]1NC(=O)[C@@H](CC(C)C)NC(=O)[C@H](CC(C)C)NC(=O)[C@H](Cc2cn(C(=O)OC(C)(C)C)c3ccccc23)NC(=O)[C@@H](CCCNC(=O)OC(C)(C)C)NC(=O)[C@H](COC(C)(C)C)NC1=O [cyclo(Trp(Boc)-Leu-D-Leu-Ile-Ser(tBu)-D-Orn(Boc))]
From H-Trp(Boc)-Leu-dLeu-Ile-Ser(tBu)-dOrn(Boc)-OH
  ring closure, isolated yield: 68%

## CC(C)C[C@@H]1NC(=O)[C@H](Cc2cn(C(=O)OC(C)(C)C)c3ccccc23)NC(=O)[C@@H](CCCNC(=O)OC(C)(C)C)NC(=O)[C@H](CC(=O)NC(c2ccccc2)(c2ccccc2)c2ccccc2)NC(=O)[C@H](C(C)C)NC(=O)[C@@H](C)NC1=O [cyclo(Trp(Boc)-D-Orn(Boc)-Asn(Trt)-Val-D-Ala-Leu)]
From H-dAla-Val-Asn(Trt)-dOrn(Boc)-Trp(Boc)-Leu-OH
  ring closure, isolated yield: 64%

## CC(C)C[C@H]1NC(=O)[C@H](C)NC(=O)[C@H](Cc2cn(C(=O)OC(C)(C)C)c3ccccc23)NC(=O)[C@@H](CCCNC(=O)OC(C)(C)C)NC(=O)[C@H](CC(=O)NC(c2ccccc2)(c2ccccc2)c2ccccc2)NC(=O)[C@H](C(C)C)NC1=O [cyclo(Trp (Boc)-D-Orn(Boc)-Asn(Trt)-Val-D-Leu-Ala)]
From H-dLeu-Val-Asn(Trt)-dOrn(Boc)-Trp(Boc)-Ala-OH
  ring closure, isolated yield: 45%
